According to patent US10973801B2, “Capsid assembly modulator dosing regimen” (Janssen Sciences Ireland Unlimited Company, priority 2018, dated 2021):
Several values for one entry are separate records, joined by “and”; a condition that tells them apart may be missing. Identical values can stand only once.

System: HBV DNA
Experiment: Plasma HBV DNA in treatment naïve chronic hepatitis B patients
Type: in vivo, hepatitis B virus
Details: for HBV DNA Day 29 Mean Change from Baseline: N 8; for mean reduction in plasma HBV DNA levels from baseline: after 28 days
Source text: Serum HBV DNA quantitation can be performed according to methods known in the art, for example, using the polymerase chain reaction (PCR)-based assay COBAS® TAQMAN® HBV Test v2.0 (Roche Diagnostics), which has been validated to quantify HBV DNA from serum samples for diverse HBV genotypes (A-H) including pre-core mutant HBV strains, with a reported lower limit of detection of 35 IU/mL and a linear dynamic range of quantitation of 1.7×10^2 to 8.5×10^8 IU/mL IU/mL, using the WHO pooled serum reference standard for quantitation.
In part 2 of this study (FIG. 1, sessions 8-9), the objective was to evaluate the safety, PK, and antiviral activity of Compound A in treatment naïve, chronic hepatitis B patients over a 28-day treatment period. The patient criteria were: • HBeAg-positive or negative • Plasma HBV DNA>2.0 log 10 IU/mL • ALT/AST<2.5×ULN • METAVIR stage<F3. 1.1 Patient Baseline Characteristics
HBV DNA was assessed for each patient weekly during this study (see FIG. 3). A mean reduction in plasma HBV DNA levels of 2.16 (±0.49 SD) log10 IU/mL (25 mg Compound A) and 2.89 (±0.48 SD) log10 IU/mL (75 mg Compound A) from baseline was observed after 28 days. Three patients dosed with 75 mg QD achieved HBV DNA below the level of quantification of the HBV DNA assay while none in the 25 mg Compound A group achieved this. A more pronounced and consistent decline in HBV DNA was observed across patients in the 75 mg group compared with the 25 mg group.

## C[C@H](NS(=O)(=O)c1cc(C(=O)Nc2ccc(F)c(C#N)c2)n(C)c1)C(F)(F)F [Compound A]
25 mg QD
  HBV DNA Day 29 Mean Change from Baseline: −2.16 log10 IU/mL
25 mg
  mean reduction in plasma HBV DNA levels from baseline: 2.16 (±0.49 SD) log10 IU/mL and 2.16 (±0.49) log10 IU/mL
75 mg QD
  HBV DNA Day 29 Mean Change from Baseline: −2.89 log10 IU/mL
75 mg
  mean reduction in plasma HBV DNA levels from baseline: 2.89 (±0.48 SD) log10 IU/mL and 2.89 (±0.48) log10 IU/mL
